Data: patent US8927579B2, “Male contraceptive” (priority 2007, dated 2015)
Counter-ions that a name gives are not always drawn.

Assays:
[1] = system: longitudinal muscle of human vas deferens; assay: Contractile actions of L-type Ca2+ agonists, longitudinal muscle; conditions: for contractions on second exposure to [K+]o, percentage of corresponding initial responses, longitudinal muscle: [K+]o 30 mM & 120 mM in the continuous presence of agonist 1.0 μM; for response of longitudinal muscle to higher concentration of L-type Ca2+ agonist: agonist 10 μM; for response of longitudinal muscle to brief exposure to L-type Ca2+ agonist: agonist 0.1-3 μM
Description: (§1) Human vas deferens specimens were obtained after elective vasectomies of healthy fertile men. College ethical approval and the consent of patients were obtained. The specimens were placed in ice-cold Krebs' medium, dissected-free of connective tissue/blood vessels and cut longitudinally into strips (longitudinal muscle preparations; 5-10 mm long & 1 mm wide) or transversely into rings (circular muscle preparations; 3 mm in length). The longitudinal and circular muscle preparations were then set up for tension recording (resting tension 5-7 mN) in a Perspex chamber superfused at 2 ml per min with Krebs' medium (36° C.) composed of (mM): NaCl, 118.8; NaHCO3, 25; KCl, 4.7; CaCl2.2H2O, 2.5; KH2PO4, 1.2; MgSO4.7H2O, 1.2; glucose, 11.1; ascorbic acid 0.1 and continuously gassed with 95% O2 and 5% CO2. Contractile responses were recorded via a Harvard-type force-displacement transducer. The analog signals were digitised using CIO-Das 16/Jr data acquisition software (Amplicon Liveline, Brighton, UK) and re-plotted on a microcomputer.
(§2) Tissues were equilibrated for 180 min in Krebs' medium containing inhibitors of extraneuronal and neuronal reuptake of noradrenaline, oestradiol (1 μM) and desipramine (0.1 μM) respectively, inhibitors of catechol-O-methyltransferase and monoamine oxidase, tropolone (10 μM) and iproniazid (10 μM) respectively and the β-adrenoceptor blocker, propranolol (1 μM). At the end of the equilibration period, the tissues were stimulated with noradrenaline (100 μM). […] After a contact time of 30-40 min in this medium, different experimental protocols (described below) were adopted in order to • (a) Elucidate the contractile actions of L-type Ca^2+ agonists such as FPL 64176 or Bay K 8644. In these experiments, tissues were exposed to FPL 64176 (0.1-10 μM added cumulatively) or in separate experiments Bay K 8644 (0.1-10 μM added cumulatively). • (b) Investigate the effects of various diphenylalkylamines and conventional L-type Ca^2+ antagonists (methoxyverapamil or nifedipine) on contractions evoked by high concentrations of extracellular potassium (high [K^+]o) in the presence of L-type Ca^2+ agonists, FPL 64176 (1 μM) or Bay K 8644 (1 μM). In this protocol, tissues were stimulated with high [K^+]O (10, 30 and 120 mM at 10-15 min intervals) in normal Krebs' medium, then exposed to L-type Ca^2+ agonists for 20-30 min and subsequently stimulated with high [K^+]O (10, 30 and 120 mM) in the presence of the drugs. These provided the initial responses. Following this and in the continuous presence of the L-type Ca^2+ agonists, the tissues were exposed additionally to L-type Ca^2+ antagonists (conventional or diphenylalkylamines) or drug-free vehicle medium. After contact times of 25-50 min the tissues were stimulated, first with high [K^+]O (either 30 mM or 120 mM) in order to take account of the well-documented use-dependent action of the diphenylalkylamine Ca^2+ antagonists. Following recovery from the test contraction and after a further 30-40 min, the tissues were then stimulated with high [K^+]o (10, 30 and 120 mM). This protocol is illustrated in FIGS. 3 and 4. The resulting contractions were measured (see below) and expressed as a percentage of corresponding initial responses to high [K^+]o evoked in the presence of L-type Ca^2+ agonists (i.e. before exposure to L-type Ca^2+ antagonists). […] Subsequent analysis (see below) was between contractions of drug-treated tissues and time-matched controls • (c) Determine the inhibitory potencies (IC50 values) of various diphenylalkylamines and phenothiazines and conventional L-type Ca^2+ antagonists (nifedipine and methoxyverapamil) against contractions evoked in longitudinal and circular muscle of human vas deferens by high [K^+]o (120 mM) in the presence of FPL 64176. In these experiments, tissues were stimulated with high [K^+]o (120 mM); sequentially in normal Krebs' medium and after 25-30 min exposure to the L-type Ca^2+ agonist, FPL 64176, (1 μM, Initial response). […]

[2] = system: circular muscle of human vas deferens; assay: Contractile actions of L-type Ca2+ agonists, circular muscle; conditions: for contractions on second exposure to [K+]o, percentage of corresponding initial responses, circular muscle: [K+]o 30 mM & 120 mM in the continuous presence of agonist 1.0 μM; for response of circular muscle to higher concentration of L-type Ca2+ agonist: agonist 10 μM; for response of circular muscle to brief exposure to L-type Ca2+ agonist: agonist 0.1-3 μM
Description: as §1, §2

[3] = system: longitudinal muscle of human vas deferens; assay: IC50 against contractions evoked by high K+ (120 mM) in the presence of FPL 64176, longitudinal muscle strips; conditions: Homo sapiens; contractions evoked by K+ (120 mM) in the presence of FPL 64176 (1 μM); means ± S.E.M.
Description: as §1, §2

[4] = system: circular muscle of human vas deferens; assay: IC50 against contractions evoked by high K+ (120 mM) in the presence of FPL 64176, circular muscle rings; conditions: Homo sapiens; contractions evoked by K+ (120 mM) in the presence of FPL 64176 (1 μM); means ± S.E.M.
Description: as §1, §2

[5] = system: longitudinal muscle of human vas deferens; assay: Inhibition at fixed concentration of contractions evoked by high K+ in the presence of FPL 64176, longitudinal muscle; conditions: drug 10 μM
Description: as §1
Tissues were equilibrated for 180 min in Krebs' medium containing inhibitors of extraneuronal and neuronal reuptake of noradrenaline, oestradiol (1 μM) and desipramine (0.1 μM) respectively, inhibitors of catechol-O-methyltransferase and monoamine oxidase, tropolone (10 μM) and iproniazid (10 μM) respectively and the β-adrenoceptor blocker, propranolol (1 μM). At the end of the equilibration period, the tissues were stimulated with noradrenaline (100 μM). […] After a contact time of 30-40 min in this medium, different experimental protocols (described below) were adopted in order to • (a) Elucidate the contractile actions of L-type Ca^2+ agonists such as FPL 64176 or Bay K 8644. In these experiments, tissues were exposed to FPL 64176 (0.1-10 μM added cumulatively) or in separate experiments Bay K 8644 (0.1-10 μM added cumulatively). • (b) Investigate the effects of various diphenylalkylamines and conventional L-type Ca^2+ antagonists (methoxyverapamil or nifedipine) on contractions evoked by high concentrations of extracellular potassium (high [K^+]o) in the presence of L-type Ca^2+ agonists, FPL 64176 (1 μM) or Bay K 8644 (1 μM). In this protocol, tissues were stimulated with high [K^+]O (10, 30 and 120 mM at 10-15 min intervals) in normal Krebs' medium, then exposed to L-type Ca^2+ agonists for 20-30 min and subsequently stimulated with high [K^+]O (10, 30 and 120 mM) in the presence of the drugs. These provided the initial responses. […] The resulting contractions were measured (see below) and expressed as a percentage of corresponding initial responses to high [K^+]o evoked in the presence of L-type Ca^2+ agonists (i.e. before exposure to L-type Ca^2+ antagonists). […]

[6] = system: circular muscle of human vas deferens; assay: Inhibition at fixed concentration of contractions evoked by high K+ in the presence of FPL 64176, circular muscle; conditions: drug 10 μM
Description: as §1
Tissues were equilibrated for 180 min in Krebs' medium containing inhibitors of extraneuronal and neuronal reuptake of noradrenaline, oestradiol (1 μM) and desipramine (0.1 μM) respectively, inhibitors of catechol-O-methyltransferase and monoamine oxidase, tropolone (10 μM) and iproniazid (10 μM) respectively and the β-adrenoceptor blocker, propranolol (1 μM). At the end of the equilibration period, the tissues were stimulated with noradrenaline (100 μM). […] After a contact time of 30-40 min in this medium, different experimental protocols (described below) were adopted in order to • (a) Elucidate the contractile actions of L-type Ca^2+ agonists such as FPL 64176 or Bay K 8644. In these experiments, tissues were exposed to FPL 64176 (0.1-10 μM added cumulatively) or in separate experiments Bay K 8644 (0.1-10 μM added cumulatively). • (b) Investigate the effects of various diphenylalkylamines and conventional L-type Ca^2+ antagonists (methoxyverapamil or nifedipine) on contractions evoked by high concentrations of extracellular potassium (high [K^+]o) in the presence of L-type Ca^2+ agonists, FPL 64176 (1 μM) or Bay K 8644 (1 μM). In this protocol, tissues were stimulated with high [K^+]O (10, 30 and 120 mM at 10-15 min intervals) in normal Krebs' medium, then exposed to L-type Ca^2+ agonists for 20-30 min and subsequently stimulated with high [K^+]O (10, 30 and 120 mM) in the presence of the drugs. These provided the initial responses. Following this and in the continuous presence of the L-type Ca^2+ agonists, the tissues were exposed additionally to L-type Ca^2+ antagonists (conventional or diphenylalkylamines) or drug-free vehicle medium. After contact times of 25-50 min the tissues were stimulated, first with high [K^+]O (either 30 mM or 120 mM) in order to take account of the well-documented use-dependent action of the diphenylalkylamine Ca^2+ antagonists. Following recovery from the test contraction and after a further 30-40 min, the tissues were then stimulated with high [K^+]o (10, 30 and 120 mM). This protocol is illustrated in FIGS. 3 and 4. The resulting contractions were measured (see below) and expressed as a percentage of corresponding initial responses to high [K^+]o evoked in the presence of L-type Ca^2+ agonists (i.e. before exposure to L-type Ca^2+ antagonists). […]

[7] = system: longitudinal muscle of human vas deferens; assay: New molecules against contractions to high K+ (120 mM), longitudinal muscle; conditions: for IC50: Homo sapiens, contractions evoked by K+ (120 mM), preliminary data, mean, n=2-3, read-out: Functional inhibitory potencies (IC50 values), Longitudinal muscle; for relative effectiveness against longitudinal and circular muscle contractions: contractions evoked by high [K+]o; for Selectivity [(C/L)-1]: longitudinal muscle selectivity from IC50 values in circular and longitudinal muscle, K+ (120 mM)
Description: as §1, with “preparations; 5-8” for “preparations; 5-10”, “preparations; ˜3” for “preparations; 3”, “a Harvard type” for “a Harvard-type”
(§3) Tissues were equilibrated for 180 min in Krebs' medium containing inhibitors of extraneuronal and neuronal reuptake of noradrenaline, oestradiol (1 μM) and desipramine (0.1 μM) respectively, inhibitors of catechol-O-methyltransferase and monoamine oxidase, tropolone (10 μM) and iproniazid (10 μM) respectively and the β-adrenoceptor blocker, propranolol (1 μM). At the end of the equilibration period, the tissues were stimulated with noradrenaline (100 μM). […] After 40-45 min in this medium the tissues were stimulated with high [K^+]O (120 mM, Initial response). This was followed by exposure to cumulative concentrations of the new molecules {NIBA(1)XC1, NIBA(14)XN10, NIBA(6)XN3, NIBA(2)XC2, NIBA(53)XN16} or to Krebs' medium containing drug vehicles (time-matched controls). After contact times of 40-60 min at each drug concentration, the tissues were stimulated with high [K^+]o (120 mM). The resulting contractions were measured using computer software developed in-house to measure the total response (i.e. rhythmic activity plus tonic contraction). Contractions obtained in the presence of the new drug molecules were expressed as a percentage of the initial contraction evoked by high [K^+]o (120 mM) before exposure to the drugs.

[8] = system: circular muscle of human vas deferens; assay: New molecules against contractions to high K+ (120 mM), circular muscle; conditions: contractions evoked by K+ (120 mM), preliminary data, mean, n=2-3, read-out: Functional inhibitory potencies (IC50 values), Circular muscle
Description: as §1, with “preparations; 5-8” for “preparations; 5-10”, “preparations; ˜3” for “preparations; 3”, “a Harvard type” for “a Harvard-type”
as §3

[9] = Homo sapiens, [K+]o 120 mM in the presence of FPL 64176
[10] = [K+]o 30 mM in the presence of FPL 64176 (1.0 μM)

COC(=O)C1=C(C)NC(C)=C([N+](=O)[O-])[C@H]1c1ccccc1C(F)(F)F [Bay K 8644]
contractions on second exposure to [K+]o, percentage of corresponding initial responses, longitudinal muscle [1]: ~92% | response of longitudinal muscle to higher concentration of L-type Ca2+ agonist [1]: rhythmic contractility | response of longitudinal muscle to brief exposure to L-type Ca2+ agonist [1]: unresponsive | contractions on second exposure to [K+]o, percentage of corresponding initial responses, circular muscle [2]: 86-92% | response of circular muscle to higher concentration of L-type Ca2+ agonist [2]: rhythmic contractility | response of circular muscle to brief exposure to L-type Ca2+ agonist [2]: unresponsive

CN(C)CCCN1c2ccccc2Sc2ccc(Cl)cc21 [Chlorpromazine, chlorpromazine hydrochloride]
IC50 [3]: 12.4 ± 2.9 µM | IC50 [4]: 18.3 ± 6 µM

COC(=O)c1c(C)[nH]c(C)c1C(=O)c1ccccc1Cc1ccccc1 [FPL 64176, 2,5-dimethyl-4-[2-(phenylmethyl)benzoyl]-H-pyrrole-3-carboxylic acid methyl ester]
contractions on second exposure to [K+]o, percentage of corresponding initial responses, longitudinal muscle [1]: 160-181% | response of longitudinal muscle to higher concentration of L-type Ca2+ agonist [1]: rhythmic contractility | response of longitudinal muscle to brief exposure to L-type Ca2+ agonist [1]: quiescent | contractions on second exposure to [K+]o, percentage of corresponding initial responses, circular muscle [2]: 270-300% | response of circular muscle to higher concentration of L-type Ca2+ agonist [2]: rhythmic contractility | response of circular muscle to brief exposure to L-type Ca2+ agonist [2]: quiescent

Fc1ccc(C(c2ccc(F)cc2)N2CCN(C/C=C/c3ccccc3)CC2)cc1 [Flunarizine, flunarizine dihydrochloride]
inhibition at 10 µM [5, 9]: 40 to 44% | inhibition of longitudinal muscle contractions compared to time-matched controls [5, 10]: 20-30% | inhibition at 10 µM [6, 9]: 40 to 44% | inhibition of circular muscle contractions compared to time-matched controls [6, 10]: 20-30%

COCC(=O)O[C@]1(CCN(C)CCCc2nc3ccccc3[nH]2)CCc2cc(F)ccc2[C@@H]1C(C)C [Mibefradil]
IC50 [3]: 1.1 ± 0.2 µM | IC50 [4]: 2.4 ± 0.9 µM

CN1CCCCC1CNCCC(c1ccccc1)c1ccccc1 (centres unmarked) [NIBA(1)XC1]
IC50 [7]: 3.02 µM | relative effectiveness against longitudinal and circular muscle contractions [7]: more effective against longitudinal than circular muscle contractions | Selectivity [(C/L)-1] [7]: 7.01 | IC50 [8]: 24.2 µM

CC1CCCCN1CCC(c1ccccc1)c1ccccc1 (centres unmarked) [NIBA(2)XC2]
IC50 [7]: 3 µM | relative effectiveness against longitudinal and circular muscle contractions [7]: more effective against longitudinal than circular muscle contractions | Selectivity [(C/L)-1] [7]: 2.69 | IC50 [8]: 11.1 µM

CN1CCCCC1CCN(c1ccccc1)c1ccccc1 (centres unmarked) [NIBA(6)XN3]
IC50 [7]: 6.25 µM | relative effectiveness against longitudinal and circular muscle contractions [7]: more effective against longitudinal than circular muscle contractions | Selectivity [(C/L)-1] [7]: >3.8 | IC50 [8]: > 30 µM
